Measurements from the NIST ThermoML archive (doi:10.1021/acs.jced.8b00601).
± gives the expanded uncertainty stated by the source.

Experiment: activity coefficient (dimensionless); of the first substance listed, at infinite dilution; xn = mol fraction of the nth substance listed
Conditions: 101.33 kPa, Liquid, Chromatography, x1 = 0

| SMILES | activity coefficient (313 K) | activity coefficient (323 K) | activity coefficient (333 K) | activity coefficient (343 K) |
| --- | --- | --- | --- | --- |
| O=C1CCCCC1 [cyclohexanone] + O=S(=O)([N-]S(=O)(=O)C(F)(F)F)C(F)(F)F.O=S(=O)([N-]S(=O)(=O)C(F)(F)F)C(F)(F)F.O=S(=O)([N-]S(=O)(=O)C(F)(F)F)C(F)(F)F.c1ccc2cc(-n3cc[n+](Cc4cc(C[n+]5ccn(-c6ccc7ccccc7c6)c5)cc(C[n+]5ccn(-c6ccc7ccccc7c6)c5)c4)c3)ccc2c1 | 1 ± 0.1 | 0.999 ± 0.1 | 1 ± 0.1 | 1 ± 0.1 |
| O=Cc1ccccc1 [benzaldehyde] + O=S(=O)([N-]S(=O)(=O)C(F)(F)F)C(F)(F)F.O=S(=O)([N-]S(=O)(=O)C(F)(F)F)C(F)(F)F.O=S(=O)([N-]S(=O)(=O)C(F)(F)F)C(F)(F)F.c1ccc2cc(-n3cc[n+](Cc4cc(C[n+]5ccn(-c6ccc7ccccc7c6)c5)cc(C[n+]5ccn(-c6ccc7ccccc7c6)c5)c4)c3)ccc2c1 | 1 ± 0.1 | 0.999 ± 0.1 | 1 ± 0.1 | 1 ± 0.1 |
